From ChEMBL document CHEMBL1156766, “Chloro-substituted 3-alkylamino-4H-1,2,4-benzothiadiazine 1,1-dioxides as ATP-sensitive potassium channel activators: impact of the position of the chlorine atom on the aromatic ring on activity and tissue selectivity” (J Med Chem, 2010) come the findings set out here.

SMILES strings stand for the structures. Calls of active or inactive are those of the source. No cut-off for these calls is given here.

Data set [1] in a line: Inhibition of glucose-induced insulin secretion in rat pancreatic islets assessed as residual insulin release. The format is functional, cell-based. Conditions: Pancreatic islet.
Data set [2] can be described thus: Inhibition of glucose-induced insulin secretion in rat pancreatic islets assessed as residual insulin release at 50 uM. The class given is functional, Pancreatic islet.
A short description of data set [3]: Ratio of EC50 for rat aortic ring to IC50 for rat pancreatic islets. The class given is functional, Aorta.
Data set [4] in a line: Inhibition of glucose-induced insulin secretion in rat pancreatic islets assessed as residual insulin release at 10 uM. The format is functional, Pancreatic islet.
Data set [5] is described as follows: Inhibition of glucose-induced insulin secretion in rat pancreatic islets assessed as residual insulin release at 1 uM. The class given is functional, Pancreatic islet.
Another data set concerns Aorta. As to the kind of experiment: Myorelaxant activity in rat aortic ring assessed as inhibition of KCL-induced contraction. The format is functional, tissue-based.
The target in data set [6] is Sulfonylurea receptor 1, Kir6.2 (Homo sapiens) (UniProt Q14654+Q09428). Briefly: Activation of human recombinant SUR1/Kir6.2 channel expressed in HEK293 cells assessed as increase in ionic current by whole cell patch clamp assay in presence of KATP channel blocker Tolbutamide. The class given is cell-based. (In patch-clamp work, channel activity is measured electrically.)

Data set [7] can be described thus: Increase in 86Rb outflow in perfused rat pancreatic islets at 10 uM in presence of extracellular calcium and glucose. The format is functional, Pancreatic islet.
The nature of data set [8]: Dissociation constant, pKa of the compound. The class given is physicochemical.
Data set [9] is described as follows: Inhibition of glucose-induced insulin secretion in rat pancreatic islets assessed as residual insulin release at 0.1 uM. The class given is functional, Pancreatic islet.
For data set [10], the target named is Sulfonylurea receptor 1, Kir6.2 (Homo sapiens, UniProt Q09428+Q14654). Briefly: Activation of human recombinant SUR1/Kir6.2 channel expressed in HEK293 cells assessed as increase in ionic current by whole cell patch clamp assay. The class given is cell-based.
Chain of Sulfonylurea receptor 1, Kir6.2 (Q14654 whole entry): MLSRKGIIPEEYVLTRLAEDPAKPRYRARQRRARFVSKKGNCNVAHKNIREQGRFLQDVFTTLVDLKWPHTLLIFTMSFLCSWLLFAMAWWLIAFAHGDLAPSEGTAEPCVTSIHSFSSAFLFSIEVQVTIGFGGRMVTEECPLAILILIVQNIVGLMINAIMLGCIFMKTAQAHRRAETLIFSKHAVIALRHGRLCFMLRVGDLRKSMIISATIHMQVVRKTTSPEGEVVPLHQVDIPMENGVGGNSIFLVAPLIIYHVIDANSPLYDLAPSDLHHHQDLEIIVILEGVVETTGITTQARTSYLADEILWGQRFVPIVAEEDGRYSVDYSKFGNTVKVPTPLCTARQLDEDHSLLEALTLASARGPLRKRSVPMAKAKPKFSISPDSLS
Chain of Sulfonylurea receptor 1, Kir6.2 (Q09428 whole entry): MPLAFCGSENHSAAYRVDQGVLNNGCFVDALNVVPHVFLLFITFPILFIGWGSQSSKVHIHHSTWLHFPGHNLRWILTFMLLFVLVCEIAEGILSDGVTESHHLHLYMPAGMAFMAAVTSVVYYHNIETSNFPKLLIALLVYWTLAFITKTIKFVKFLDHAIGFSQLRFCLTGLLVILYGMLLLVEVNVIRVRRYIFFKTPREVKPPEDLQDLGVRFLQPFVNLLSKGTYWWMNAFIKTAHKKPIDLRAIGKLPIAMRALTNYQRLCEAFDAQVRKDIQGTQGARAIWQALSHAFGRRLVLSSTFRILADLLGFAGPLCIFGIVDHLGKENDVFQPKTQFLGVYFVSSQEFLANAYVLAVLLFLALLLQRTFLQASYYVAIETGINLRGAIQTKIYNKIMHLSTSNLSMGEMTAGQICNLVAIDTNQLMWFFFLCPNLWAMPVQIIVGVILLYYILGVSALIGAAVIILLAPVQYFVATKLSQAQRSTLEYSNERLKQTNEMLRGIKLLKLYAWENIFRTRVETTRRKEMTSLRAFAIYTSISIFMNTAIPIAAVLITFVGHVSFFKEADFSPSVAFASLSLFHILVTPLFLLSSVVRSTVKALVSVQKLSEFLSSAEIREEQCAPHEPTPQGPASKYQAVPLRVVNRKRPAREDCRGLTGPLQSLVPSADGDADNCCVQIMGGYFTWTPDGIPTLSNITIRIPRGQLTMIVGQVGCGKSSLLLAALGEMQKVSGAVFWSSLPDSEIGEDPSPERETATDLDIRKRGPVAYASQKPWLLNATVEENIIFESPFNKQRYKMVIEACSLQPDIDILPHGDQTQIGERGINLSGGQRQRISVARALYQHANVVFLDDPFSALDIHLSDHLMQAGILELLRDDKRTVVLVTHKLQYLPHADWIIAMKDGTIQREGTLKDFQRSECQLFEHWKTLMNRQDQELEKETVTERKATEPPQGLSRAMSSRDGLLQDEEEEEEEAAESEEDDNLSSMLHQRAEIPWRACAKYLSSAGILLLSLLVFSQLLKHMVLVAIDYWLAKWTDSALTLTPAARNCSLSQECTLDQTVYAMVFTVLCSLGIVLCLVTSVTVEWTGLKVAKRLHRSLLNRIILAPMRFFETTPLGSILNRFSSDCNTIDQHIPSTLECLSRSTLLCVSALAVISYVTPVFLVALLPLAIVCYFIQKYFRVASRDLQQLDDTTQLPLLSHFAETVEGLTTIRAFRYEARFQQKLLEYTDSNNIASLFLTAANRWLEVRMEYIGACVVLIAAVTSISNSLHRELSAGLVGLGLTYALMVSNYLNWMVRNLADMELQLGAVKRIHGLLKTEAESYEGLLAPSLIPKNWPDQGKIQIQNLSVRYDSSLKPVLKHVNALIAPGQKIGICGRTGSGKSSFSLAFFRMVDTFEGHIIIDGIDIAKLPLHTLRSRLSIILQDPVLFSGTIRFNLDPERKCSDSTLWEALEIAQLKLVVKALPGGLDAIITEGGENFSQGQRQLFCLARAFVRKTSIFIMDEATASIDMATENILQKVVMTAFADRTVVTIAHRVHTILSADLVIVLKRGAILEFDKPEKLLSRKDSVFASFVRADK

One may read the IC50 as the concentration needed to halve the response being measured. Turning to `O=S1(=O)N=C(NC2CCC2)Nc2ccc(Cl)cc21`, in data set [1], the IC50 worked out at 0.48 µM. Moreover, the Activity in data set [2] was found to be 8.11%; in data set [4], 6.44%; in data set [5], 60.19%. Also, the “Ratio EC50” value in [3] turned out to be 75.
Broadly, the EC50 is the concentration that produces a half-maximal response. Regarding `O=S1(=O)N=C(NC2CCC2)Nc2cc(Cl)ccc21`, the Activity in [2] is recorded as 9.58%; in data set [4] it was 11.27%; in [5], 66.17%; in data set [7] it was 1.45 %/min. Also, the EC50 with Aorta was greater than 300 µM. The result in data set [6] was inactive.
Take `O=S1(=O)N=C(NC2CCC2)Nc2cccc(Cl)c21`: in the data set with Aorta, the EC50 is greater than 30 µM. Further, the figures for the Activity in data set [4] and in data set [5] were 30.23% and 77.56%, respectively.
As to `CCNC1=NS(=O)(=O)c2ccc(Cl)cc2N1`, the EC50 in the data set on Aorta worked out at 54.8 µM. The Activity in data set [4] was determined as 9.55%; in [5], 21.7%.
In general, pKa refers to the pH at which an ionisable group is half protonated. For the compound `CC(C)NC1=NS(=O)(=O)c2cccc(Cl)c2N1`, the Activity in data set [2] is 96.88%. Besides, the EC50 in the data set with Aorta is greater than 300 µM. For the same compound, the pKa in data set [8] came out at 9.11.
Take `CCNC1=NS(=O)(=O)c2cc(Cl)ccc2N1`: the Activity in data set [2] is reported as 2.09%; in [4] it was 10.65%; in [5] it was 40.79%.
On to `O=S1(=O)N=C(NC2CCC2)Nc2c(Cl)cccc21`, for which the Activity in [2] was found to be 102.55%. Further, in the data set with Aorta, the EC50 was found to be 126 µM.
`CCNC1=NS(=O)(=O)c2c(Cl)cccc2N1`: the EC50 in the data set on Aorta was greater than 300 µM. The results for the Activity in data set [4] and in data set [5] were 37.55% and 95.72%, respectively.
`O=S1(=O)N=C(NC2CC2)Nc2ccc(Cl)cc21`: the results for the Activity in data set [2], in [4] and in data set [5] were 5.82%, 26.56% and 84%, respectively. For the same compound, in the data set on Aorta, the EC50 is 190 µM.
Take `O=S1(=O)N=C(NC2CC2)Nc2cc(Cl)ccc21`: the values for the Activity in [2], in data set [4] and in data set [5] were 7.97%, 12.74% and 93.02%, respectively. Moreover, the EC50 in the data set on Aorta is 156 µM.
As for `CC(C)NC1=NS(=O)(=O)c2cc(Cl)ccc2N1`, the Activity was found to be 5.66% in data set [2], 90.41% in [9], 4.84% in data set [4] and 36.19% in [5].
Turning to `O=S1(=O)NC(NC2CCC2)=Nc2cc(Cl)ccc21`, in [10], the EC50 was 0.08 µM.
`CCNC1=NS(=O)(=O)c2cccc(Cl)c2N1`: the Activity in data set [2] turned out to be 80.4%. In the data set on Aorta, the EC50 came out at 90.4 µM.
Turning to `CCCNC1=NS(=O)(=O)c2ccc(Cl)cc2N1`, the figures for the Activity in [2], in data set [4] and in data set [5] were 8.74%, 14.45% and 71.5%, respectively. Moreover, the EC50 with Aorta came to 73.2 µM.
On to `CCCNC1=NS(=O)(=O)c2cccc(Cl)c2N1`, for which the Activity in [2] stood at 94.69%. For the same compound, the half-maximal effective concentration (EC50) with Aorta was determined as 180 µM.
As to `CC(C)NC1=NS(=O)(=O)c2ccc(Cl)cc2N1`, the IC50 in [1] is 0.23 µM. The Activity in [2] is listed as 6.38%; in [9], 76.72%; in data set [4], 7.51%; in data set [5] it was 13.2%. Besides, the EC50 in the data set with Aorta worked out at 53.4 µM. Also, the “Ratio EC50” value in [3] is 230. Also, the pKa in data set [8] stood at 9.35.
`CC(C)NC1=NS(=O)(=O)c2cc(Cl)c(Cl)cc2N1`: the Activity in data set [2] is 4.96%; in data set [4], 6.29%; in [5], 13.19%.
On the same counts, the results for `CCCNC1=NS(=O)(=O)c2cc(Cl)ccc2N1` are 3.56%, 14.24% and 83.41%.
